From PubChem BioAssay (NCI)
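Method: 48-hour compound exposure of cells in 96-well plates, five concentrations, linear interpolation of endpoints. TGI: total growth inhibition.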

Tests used:
Assay in all cases: NCI tumour cell line growth inhibition, 48 h
SN12C renal = test system: SN12C renal
MDA-N = test system: MDA-N
MDA-MB-435 = test system: MDA-MB-435
IGROV1 ovarian = test system: IGROV1 ovarian
SNB-19 CNS = test system: SNB-19 CNS
CAKI-1 renal = test system: CAKI-1 renal
SK-MEL-2 melanoma = test system: SK-MEL-2 melanoma
MALME-3M melanoma = test system: MALME-3M melanoma
HCC-2998 colon = test system: HCC-2998 colon
U251 CNS = test system: U251 CNS
SK-OV-3 ovarian = test system: SK-OV-3 ovarian
PC-3 prostate = test system: PC-3 prostate
OVCAR-4 ovarian = test system: OVCAR-4 ovarian
CCRF-CEM leukemia = test system: CCRF-CEM leukemia
COLO 205 colon = test system: COLO 205 colon
MOLT-4 leukemia = test system: MOLT-4 leukemia
SF-539 CNS = test system: SF-539 CNS
OVCAR-5 ovarian = test system: OVCAR-5 ovarian
KM12 colon = test system: KM12 colon
HOP-62 NSCLC = test system: HOP-62 NSCLC
T-47D breast = test system: T-47D breast
RXF 393 renal = test system: RXF 393 renal
SF-268 CNS = test system: SF-268 CNS
HL-60(TB) leukemia = test system: HL-60(TB) leukemia
SK-MEL-28 melanoma = test system: SK-MEL-28 melanoma
HCT-15 colon = test system: HCT-15 colon
NCI-H522 lung = test system: NCI-H522 lung
A498 renal = test system: A498 renal
OVCAR-8 ovarian = test system: OVCAR-8 ovarian
HS 578T breast = test system: HS 578T breast
HOP-92 NSCLC = test system: HOP-92 NSCLC
UACC-257 melanoma = test system: UACC-257 melanoma
DU-145 prostate = test system: DU-145 prostate
M14 melanoma = test system: M14 melanoma
OVCAR-3 ovarian = test system: OVCAR-3 ovarian
RPMI-8226 leukemia = test system: RPMI-8226 leukemia
SF-295 CNS = test system: SF-295 CNS
MDA-MB-231 breast = test system: MDA-MB-231 breast
UO-31 renal = test system: UO-31 renal
TK-10 renal = test system: TK-10 renal
ACHN renal = test system: ACHN renal
HCT-116 colon = test system: HCT-116 colon
SW-620 colon = test system: SW-620 colon
NCI-H226 lung = test system: NCI-H226 lung
A549 NSCLC = test system: A549 NSCLC
NCI-H23 lung = test system: NCI-H23 lung
786-0 renal = test system: 786-0 renal
EKVX NSCLC = test system: EKVX NSCLC
SNB-75 CNS = test system: SNB-75 CNS
K-562 leukemia = test system: K-562 leukemia
NCI-H460 lung = test system: NCI-H460 lung
SK-MEL-5 melanoma = test system: SK-MEL-5 melanoma
SR leukemia = test system: SR leukemia
LOX IMVI melanoma = test system: LOX IMVI melanoma
UACC-62 melanoma = test system: UACC-62 melanoma
HT29 colon = test system: HT29 colon
NCI/ADR-RES ovarian = test system: NCI/ADR-RES ovarian

How did the TGI (SN12C renal) turn out when Nc1nc(N)c2c(CCc3ccc(C(=O)N[C@@H](CCC(=O)O)C(=O)O)cc3)ccnc2n1 was run?
The TGI was greater than 100 µM.

And the TGI (MDA-N)?
The TGI was greater than 100 µM.

What about the TGI (MDA-MB-435) of the same molecule?
The TGI was greater than 100 µM.

And the TGI (IGROV1 ovarian)?
Its TGI is greater than 100 µM.

And the TGI (SNB-19 CNS)?
Its TGI is greater than 100 µM.

What about the TGI (CAKI-1 renal) of the same molecule?
Its TGI is greater than 100 µM.

And the TGI (SK-MEL-2 melanoma)?
Its TGI is greater than 100 µM.

What about the TGI (MALME-3M melanoma) of the same molecule?
Its TGI is greater than 100 µM.

And the TGI (HCC-2998 colon)?
Its TGI is 0.0952 µM.

And the TGI (U251 CNS)?
The TGI was greater than 100 µM.

What about the TGI (SK-OV-3 ovarian) of the same molecule?
Its TGI is greater than 100 µM.

What about the TGI (PC-3 prostate) of the same molecule?
Its TGI is greater than 100 µM.

What about the TGI (OVCAR-4 ovarian) of the same molecule?
The TGI was greater than 100 µM.

And the TGI (CCRF-CEM leukemia)?
Its TGI is greater than 100 µM.

And the TGI (COLO 205 colon)?
The TGI was greater than 100 µM.

And the TGI (MOLT-4 leukemia)?
Its TGI is greater than 100 µM.

What about the TGI (SF-539 CNS) of the same molecule?
Its TGI is greater than 100 µM.

And the TGI (OVCAR-5 ovarian)?
The TGI was greater than 100 µM.

And the TGI (KM12 colon)?
The TGI was greater than 100 µM.

And the TGI (HOP-62 NSCLC)?
The TGI was greater than 100 µM.

And the TGI (T-47D breast)?
Its TGI is greater than 100 µM.

What about the TGI (RXF 393 renal) of the same molecule?
Its TGI is greater than 100 µM.

And the TGI (SF-268 CNS)?
Its TGI is greater than 100 µM.

And the TGI (HL-60(TB) leukemia)?
Its TGI is greater than 100 µM.

What about the TGI (SK-MEL-28 melanoma) of the same molecule?
Its TGI is greater than 100 µM.

What about the TGI (HCT-15 colon) of the same molecule?
The TGI was greater than 100 µM.

And the TGI (NCI-H522 lung)?
The TGI was greater than 100 µM.

And the TGI (A498 renal)?
Its TGI is greater than 100 µM.

What about the TGI (OVCAR-8 ovarian) of the same molecule?
The TGI was greater than 100 µM.

What about the TGI (HS 578T breast) of the same molecule?
The TGI was greater than 100 µM.

And the TGI (HOP-92 NSCLC)?
The TGI was greater than 100 µM.

What about the TGI (UACC-257 melanoma) of the same molecule?
Its TGI is greater than 100 µM.

What about the TGI (DU-145 prostate) of the same molecule?
Its TGI is greater than 100 µM.

And the TGI (M14 melanoma)?
The TGI was greater than 100 µM.

What about the TGI (OVCAR-3 ovarian) of the same molecule?
The TGI was greater than 100 µM.

And the TGI (RPMI-8226 leukemia)?
Its TGI is greater than 100 µM.

And the TGI (SF-295 CNS)?
The TGI was greater than 100 µM.

And the TGI (MDA-MB-231 breast)?
Its TGI is greater than 100 µM.

What about the TGI (UO-31 renal) of the same molecule?
Its TGI is greater than 100 µM.

What about the TGI (TK-10 renal) of the same molecule?
Its TGI is greater than 100 µM.

And the TGI (ACHN renal)?
Its TGI is greater than 100 µM.

And the TGI (HCT-116 colon)?
The TGI was greater than 100 µM.

And the TGI (SW-620 colon)?
The TGI was greater than 100 µM.

And the TGI (NCI-H226 lung)?
The TGI was greater than 100 µM.

And the TGI (A549 NSCLC)?
The TGI was greater than 100 µM.

And the TGI (NCI-H23 lung)?
The TGI was greater than 100 µM.

What about the TGI (786-0 renal) of the same molecule?
Its TGI is greater than 100 µM.

What about the TGI (EKVX NSCLC) of the same molecule?
Its TGI is greater than 100 µM.

What about the TGI (SNB-75 CNS) of the same molecule?
Its TGI is greater than 100 µM.

What about the TGI (K-562 leukemia) of the same molecule?
Its TGI is greater than 100 µM.

What about the TGI (NCI-H460 lung) of the same molecule?
Its TGI is greater than 100 µM.

What about the TGI (SK-MEL-5 melanoma) of the same molecule?
Its TGI is greater than 100 µM.

What about the TGI (SR leukemia) of the same molecule?
The TGI was greater than 100 µM.

What about the TGI (LOX IMVI melanoma) of the same molecule?
The TGI was greater than 100 µM.

And the TGI (UACC-62 melanoma)?
The TGI was greater than 100 µM.

And the TGI (HT29 colon)?
Its TGI is greater than 100 µM.

What about the TGI (NCI/ADR-RES ovarian) of the same molecule?
The TGI was greater than 100 µM.
